Assay results as given in patent US9497967B2, “Synergistic pesticidal compositions and related methods” (Dow AgroSciences LLC, priority 2013, dated 2016).

Assays:
Type in all cases: in vivo
Details in all cases: alone
[1] = test system: South American brown stink bug, Euschistus heros; experiment: Treated bean piece bioassay against third-instar nymphs of South American brown stink bug
Source text: (§1) The method described in Colby S. R., “Calculating Synergistic and Antagonistic Responses of Herbicide Combinations,” Weeds, 1967, 15, 20-22 was used to determine an existence of synergic effect between the chloride channel activator compound and the pesticide (I), (II), or any agriculturally acceptable salt thereof in the formulated pesticidal composition. In this method, the percent insect control of the formulated pesticidal composition as observed in the study was compared to the “expected” percent control (E) as calculated by equation (1) (hereinafter “Colby's equation”) below: […]
The active compounds were formulated in a 10% acetone solution with 0.025% non-ionic surfactant, TWEEN® 20. Bioassays were performed for each different active solution. Bean pieces (about one inch-long) were used for the tests. Four bean pieces were placed in each tested active solution and left there for 10 minutes. […]
The percent control of the pesticidal composition against South American brown stink bug, Euschistus heros, was determined as the “Observed” action, and compared to those obtained by using about 0.04 weight % of compound I, and using about 0.000156 weight % of emamectin benzoate alone. The “Colby's Expected Action” was calculated using Colby's equation as discussed previously.

[2] = test system: Western plant bug, Lygus hesperus; experiment: Treated bean piece bioassay against third-instar nymphs of Western plant bug
Source text: as §1
The active compounds were formulated in a 10% acetone solution with 0.025% non-ionic surfactant, TWEEN® 20. Bioassays were performed for each different active solution. Bean pieces (about one inch-long) were used for the tests. Four bean pieces were placed in each tested active solution and left there for 10 minutes. Bean pieces were taken out of the active solution, and each piece was placed in a well in a 32-well tray and allowed to air dry. Three third-instar nymphs of Western plant bug, Lygus hesperus, were infested into each well. The percent control of the pesticidal composition against Lygus hesperus bug was determined as the “Observed” action, and compared to those obtained by using about 0.04 weight % of compound I, and using about 0.20 weight % of emamectin benzoate alone. The “Colby's Expected Action” was calculated using Colby's equation as discussed previously.

[3] = test system: diamondback moth, Plutella xylostella; experiment: Cabbage plant track-sprayer bioassay against second instar diamondback moth
Source text: as §1
Bioassays were performed for different active compounds. Cabbage plants with about two to three new-growth-true leaf stage were treated with different active compounds using a track sprayer application at 400 L/Ha spray volume. Three second instar diamondback moth, Plutella xylostella, were infested onto each leaf disc. The percent control of the pesticidal composition against diamondback moth, Plutella xylostella, was determined as the “Observed” action, and compared to those obtained by using about 0.0025 weight % of compound II, and using about 0.000078 weight % of emamectin benzoate alone. The “Colby's Expected Action” was calculated using Colby's equation as discussed previously.
Bioassays were performed wherein different active compounds were tested against diamondback moth, Plutella xylostella, using the procedure described in example 5A.

| Molecule | % Control Four Days After Treatment ([1]; dose rate 0.000156 weight %) [%] | % Control Three Days After Treatment ([2]; dose rate 0.20 weight %) [%] | % Control Three Days After Treatment ([2]; dose rate 0.20 weight %, listed as emamectin benzoate) | % Control Three Days After Treatment ([3]; dose rate 0.000039 weight %) [%] | % Control Three Days After Treatment ([3]; dose rate 0.000078 weight %) [%] | % Control Four Days After Treatment ([1]; dose rate 0.04 weight %) [%] | % Control Three Days After Treatment ([2]; dose rate 0.04 weight %) [%] | % Control Three Days After Treatment ([2]; dose rate 0.04 weight %, listed as compound I) | % Control Three Days After Treatment ([3]; dose rate 0.000625 weight %) |
| --- | --- | --- | --- | --- | --- | --- | --- | --- | --- |
| emamectin benzoate | 25 | 0 | no control | 73.91 | 91.3 |  |  |  |  |
| CCN(C(=O)CCSCCC(F)(F)F)c1cn(-c2cccnc2)nc1Cl [Compound I, N-(3-chloro-1-(pyridin-3-yl)-1H-pyrazol-4-yl)-N-ethyl-3-((3,3,3-trifluoropropyl)thio)propanamide] |  |  |  |  |  | 8 | 0 | no control | no control |
